Test results as given in PubChem BioAssay AID1745844 (Carcinogenic Potency Database (CPDB), 2022).
The source made the active and inactive calls. The rule behind the calls is not given here. Peptide text beside a SMILES is read from it.

Test system: rodent lifetime carcinogenesis bioassay, tumor incidence TD50
Experiment: chronic cancer bioassays in animals – CPDB, compiled studies (AID 1745844)

Compound: S=c1[nH]c2ccccc2s1
- carcinogen call (mouse, strain B6AKF1, females, oral dosing, site: any site (literature study), lesion: several types, types named in the paper, dosed 76 weeks, study length 76 weeks): negative (inactive)
- carcinogen call (mouse, strain B6AKF1, females, oral dosing, site: liver, lesion: hepatoma, dosed 76 weeks, study length 76 weeks): negative (inactive)
- carcinogen call (mouse, strain B6AKF1, females, oral dosing, site: lung, lesion: adenoma, dosed 76 weeks, study length 76 weeks): negative (inactive)
- TD50 (mouse, strain B6AKF1, males, oral dosing, site: any site (literature study), lesion: several types, types named in the paper, dosed 76 weeks, study length 76 weeks): 105 mg/kg/day (inactive)
- carcinogen call (mouse, strain B6AKF1, males, oral dosing, site: liver, lesion: hepatoma, dosed 76 weeks, study length 76 weeks): negative (inactive)
- carcinogen call (mouse, strain B6AKF1, males, oral dosing, site: lung, lesion: adenoma, dosed 76 weeks, study length 76 weeks): negative (inactive)
- TD50 (mouse, strain B6C3F1, females, by gavage, site: liver, lesion: hepatocellular adenoma + hepatocellular carcinoma + neoplastic nodule, dosed 103 weeks, study length 104 weeks): 2160 mg/kg/day
- TD50 (mouse, strain B6C3F1, females, by gavage, site: liver, lesion: hepatocellular adenoma + hepatocellular carcinoma, dosed 103 weeks, study length 104 weeks): 2160 mg/kg/day
- TD50 (mouse, strain B6C3F1, females, oral dosing, site: any site (literature study), lesion: several types, types named in the paper, dosed 76 weeks, study length 76 weeks): 283 mg/kg/day (inactive)
- carcinogen call (mouse, strain B6C3F1, females, oral dosing, site: liver, lesion: hepatoma, dosed 76 weeks, study length 76 weeks): negative (inactive)
- TD50 (mouse, strain B6C3F1, females, oral dosing, site: lung, lesion: adenoma, dosed 76 weeks, study length 76 weeks): 283 mg/kg/day (inactive)
- TD50 (mouse, strain B6C3F1, males, by gavage, site: any site (literature study), lesion: several types, types named in the paper, dosed 103 weeks, study length 104 weeks): 3330 mg/kg/day (inactive)
- TD50 (mouse, strain B6C3F1, males, by gavage, site: liver, lesion: hepatocellular adenoma + hepatocellular carcinoma + neoplastic nodule, dosed 103 weeks, study length 104 weeks): 3700 mg/kg/day
- TD50 (mouse, strain B6C3F1, males, oral dosing, site: any site (literature study), lesion: several types, types named in the paper, dosed 76 weeks, study length 76 weeks): 17 mg/kg/day (inactive)
- TD50 (mouse, strain B6C3F1, males, oral dosing, site: liver, lesion: hepatoma, dosed 76 weeks, study length 76 weeks): 56.2 mg/kg/day (inactive)
- TD50 (mouse, strain B6C3F1, males, oral dosing, site: lung, lesion: adenoma, dosed 76 weeks, study length 76 weeks): 120 mg/kg/day (inactive)
- TD50 (rat, strain Fischer 344, females, by gavage, site: adrenal medulla + pituitary gland, anterior, lesion: pheochromocytoma + adenoma, NOS, dosed 103 weeks, study length 104 weeks): 247 mg/kg/day
- TD50 (rat, strain Fischer 344, females, by gavage, site: adrenal medulla, lesion: pheochromocytoma, dosed 103 weeks, study length 104 weeks): 805 mg/kg/day
- TD50 (rat, strain Fischer 344, females, by gavage, site: any site (literature study), lesion: several types, types named in the paper, dosed 103 weeks, study length 104 weeks): 576 mg/kg/day
- TD50 (rat, strain Fischer 344, females, by gavage, site: pituitary gland, anterior, lesion: adenoma, NOS, dosed 103 weeks, study length 104 weeks): 343 mg/kg/day
- TD50 (rat, strain Fischer 344, males, by gavage, site: adrenal medulla + multiple organs + pancreas + preputial gland, lesion: pheochromocytoma + pheochromocytoma, malignant + mononuclear-cell leukemia + acinar-cell adenoma + adenoma, NOS + carcinoma, NOS, dosed 103 weeks, study length 104 weeks): 157 mg/kg/day
- TD50 (rat, strain Fischer 344, males, by gavage, site: adrenal medulla, lesion: pheochromocytoma + pheochromocytoma, malignant, dosed 103 weeks, study length 104 weeks): 394 mg/kg/day
- TD50 (rat, strain Fischer 344, males, by gavage, site: any site (literature study), lesion: several types, types named in the paper, dosed 103 weeks, study length 104 weeks): 136 mg/kg/day
- TD50 (rat, strain Fischer 344, males, by gavage, site: multiple organs + tunica albuginea, lesion: mesothelioma, malignant + mesothelioma, NOS, dosed 103 weeks, study length 104 weeks): 3200 mg/kg/day
- TD50 (rat, strain Fischer 344, males, by gavage, site: multiple organs, lesion: mononuclear-cell leukemia, dosed 103 weeks, study length 104 weeks): 401 mg/kg/day
- TD50 (rat, strain Fischer 344, males, by gavage, site: pancreas, lesion: acinar-cell adenoma, dosed 103 weeks, study length 104 weeks): 345 mg/kg/day
- TD50 (rat, strain Fischer 344, males, by gavage, site: pituitary gland, anterior, lesion: adenoma, NOS, dosed 103 weeks, study length 104 weeks): 333 mg/kg/day
- TD50 (rat, strain Fischer 344, males, by gavage, site: preputial gland, lesion: adenoma, NOS + carcinoma, NOS, dosed 103 weeks, study length 104 weeks): 1580 mg/kg/day
- TD50 (rat, strain Fischer 344, males, by gavage, site: preputial gland, lesion: adenoma, NOS, dosed 103 weeks, study length 104 weeks): 1710 mg/kg/day
- TD50 (rat, strain Fischer 344, males, by gavage, site: subcutaneous tissue, lesion: fibroma + neurofibroma, dosed 103 weeks, study length 104 weeks): 1900 mg/kg/day
- TD50 (rat, strain Fischer 344, males, by gavage, site: subcutaneous tissue, lesion: fibroma, dosed 103 weeks, study length 104 weeks): 2200 mg/kg/day
- TD50 (rat, strain Fischer 344, males, by gavage, site: subcutaneous tissue, lesion: fibrosarcoma + fibroma + neurofibroma + sarcoma, NOS, dosed 103 weeks, study length 104 weeks): 1730 mg/kg/day
- TD50 (rat, strain Fischer 344, males, by gavage, site: testis, lesion: interstitial-cell tumor, dosed 103 weeks, study length 104 weeks): 240 mg/kg/day

Compound: COC(=O)[C@H](Cc1ccccc1)NC(=O)[C@@H](N)CC(=O)O (H-Asp-Phe-OMe)
- carcinogen call (rat, strain Charles River CD (Sprague-Dawley), females, in feed, site: any site (literature study), lesion: several types, types named in the paper, dosed 104 weeks, study length 104 weeks): negative (inactive)
- TD50 (rat, strain Charles River CD (Sprague-Dawley), females, in feed, site: brain, lesion: several types, types named in the paper, dosed 104 weeks, study length 104 weeks): 118000 mg/kg/day (inactive)
- carcinogen call (rat, strain Charles River CD (Sprague-Dawley), females, in feed, site: liver, lesion: hepatoma, benign, dosed 104 weeks, study length 104 weeks): negative (inactive)
- carcinogen call (rat, strain Charles River CD (Sprague-Dawley), males, in feed, site: any site (literature study), lesion: several types, types named in the paper, dosed 104 weeks, study length 104 weeks): negative (inactive)
- TD50 (rat, strain Charles River CD (Sprague-Dawley), males, in feed, site: brain, lesion: several types, types named in the paper, dosed 104 weeks, study length 104 weeks): 666000 mg/kg/day (inactive)
- TD50 (rat, strain Charles River CD (Sprague-Dawley), males, in feed, site: liver, lesion: hepatoma, benign, dosed 104 weeks, study length 104 weeks): 1.3e+06 mg/kg/day (inactive)
- carcinogen call (rat, strain Slc-Wistar, females, in feed, site: brain, lesion: several types, types named in the paper, dosed 104 weeks, study length 104 weeks): negative (inactive)
- TD50 (rat, strain Slc-Wistar, males, in feed, site: brain, lesion: several types, types named in the paper, dosed 104 weeks, study length 104 weeks): 186000 mg/kg/day (inactive)

Compound: Nc1nc(=S)c2ncn([C@H]3C[C@H](O)[C@@H](CO)O3)c2[nH]1
- TD50 (mouse, strain B6C3F1, females, i.p., site: any site (literature study), lesion: several types, types named in the paper, dosed 43 weeks, study length 77 weeks): 4.48 mg/kg/day
- TD50 (mouse, strain B6C3F1, females, i.p., site: lung, lesion: alveolar/bronchiolar adenoma + alveolar/bronchiolar carcinoma, dosed 43 weeks, study length 77 weeks): 6.87 mg/kg/day
- TD50 (rat, strain Sprague-Dawley, females, i.p., site: any site (literature study), lesion: several types, types named in the paper, dosed 52 weeks, study length 78 weeks): 4.11 mg/kg/day
- TD50 (rat, strain Sprague-Dawley, females, i.p., site: ear canal, lesion: carcinoma, NOS + squamous-cell carcinoma, dosed 52 weeks, study length 78 weeks): 2.1 mg/kg/day
- TD50 (rat, strain Sprague-Dawley, females, i.p., site: ear canal, lesion: squamous-cell carcinoma, dosed 52 weeks, study length 78 weeks): 2.31 mg/kg/day
- TD50 (rat, strain Sprague-Dawley, males, i.p., site: all sites, lesion: lymphoma, dosed 52 weeks, study length 78 weeks): 5.75 mg/kg/day
- TD50 (rat, strain Sprague-Dawley, males, i.p., site: ear canal, lesion: carcinoma, NOS + squamous-cell carcinoma, dosed 52 weeks, study length 78 weeks): 4.38 mg/kg/day

Compound: CC(COc1ccc(C(C)(C)C)cc1)OS(=O)OCCCl (stereo not given)
- TD50 (mouse, strain B6AKF1, females, oral dosing, site: any site (literature study), lesion: several types, types named in the paper, dosed 80 weeks, study length 80 weeks): 391 mg/kg/day
- TD50 (mouse, strain B6AKF1, females, oral dosing, site: lung, lesion: adenoma, dosed 80 weeks, study length 80 weeks): 432 mg/kg/day
- TD50 (mouse, strain B6AKF1, males, oral dosing, site: liver, lesion: hepatoma, dosed 77 weeks, study length 77 weeks): 15900 mg/kg/day
- TD50 (mouse, strain B6C3F1, females, oral dosing, site: any site (literature study), lesion: several types, types named in the paper, dosed 77 weeks, study length 77 weeks): 92.7 mg/kg/day
- TD50 (mouse, strain B6C3F1, females, oral dosing, site: liver, lesion: hepatoma, dosed 77 weeks, study length 77 weeks): 973 mg/kg/day
- TD50 (mouse, strain B6C3F1, females, oral dosing, site: lung, lesion: adenoma, dosed 77 weeks, study length 77 weeks): 973 mg/kg/day
- TD50 (mouse, strain B6C3F1, males, oral dosing, site: any site (literature study), lesion: several types, types named in the paper, dosed 80 weeks, study length 80 weeks): 103 mg/kg/day
- TD50 (mouse, strain B6C3F1, males, oral dosing, site: liver, lesion: hepatoma, dosed 80 weeks, study length 80 weeks): 158 mg/kg/day
- TD50 (mouse, strain B6C3F1, males, oral dosing, site: liver, lesion: several types, types named in the paper, dosed 80 weeks, study length 80 weeks): 126 mg/kg/day
- TD50 (rat, strain CFN, both sexes, in feed, site: bile duct, lesion: adenoma, dosed 104 weeks, study length 104 weeks): 1010 mg/kg/day
- TD50 (rat, strain CFN, both sexes, in feed, site: liver, lesion: hyperplastic nodule, dosed 104 weeks, study length 104 weeks): 61.8 mg/kg/day
- TD50 (rat, strain Food and Drug Research Laboratories stock rats, both sexes, in feed, site: liver, lesion: several types, types named in the paper, dosed 93 weeks, study length 104 weeks): 430 mg/kg/day
- TD50 (rat, strain Osborne-Mendel, females, in feed, site: any site (literature study), lesion: benign tumor, dosed 104 weeks, study length 104 weeks): 31.5 mg/kg/day (inactive)
- carcinogen call (rat, strain Osborne-Mendel, females, in feed, site: any site (literature study), lesion: malignant tumor, dosed 104 weeks, study length 104 weeks): negative (inactive)
- carcinogen call (rat, strain Osborne-Mendel, females, in feed, site: any site (literature study), lesion: several types, types named in the paper, dosed 117 weeks, study length 117 weeks): negative (inactive)
- TD50 (rat, strain Osborne-Mendel, females, in feed, site: liver, lesion: hemangioma, dosed 117 weeks, study length 117 weeks): 256 mg/kg/day (inactive)
- carcinogen call (rat, strain Osborne-Mendel, females, in feed, site: liver, lesion: one or several types, types not named, dosed 104 weeks, study length 104 weeks): negative (inactive)
- TD50 (rat, strain Osborne-Mendel, males, in feed, site: any site (literature study), lesion: benign tumor, dosed 104 weeks, study length 104 weeks): 64.7 mg/kg/day (inactive)
- carcinogen call (rat, strain Osborne-Mendel, males, in feed, site: any site (literature study), lesion: malignant tumor, dosed 104 weeks, study length 104 weeks): negative (inactive)
- TD50 (rat, strain Osborne-Mendel, males, in feed, site: any site (literature study), lesion: malignant tumor, dosed 117 weeks, study length 117 weeks): 101 mg/kg/day (inactive)
- TD50 (rat, strain Osborne-Mendel, males, in feed, site: any site (literature study), lesion: several types, types named in the paper, dosed 117 weeks, study length 117 weeks): 198 mg/kg/day (inactive)
- carcinogen call (rat, strain Osborne-Mendel, males, in feed, site: liver, lesion: one or several types, types not named, dosed 104 weeks, study length 104 weeks): negative (inactive)
- carcinogen call (rat, strain Osborne-Mendel, males, in feed, site: liver, lesion: one or several types, types not named, dosed 117 weeks, study length 117 weeks): negative (inactive)
- TD50 (rat, strain Sprague-Dawley, both sexes, in feed, site: liver, lesion: hyperplastic nodule, dosed 104 weeks, study length 104 weeks): 760 mg/kg/day
- TD50 (rat, strain Wistar/FDRL, both sexes, in feed, site: bile duct, lesion: adenoma, dosed 104 weeks, study length 104 weeks): 397 mg/kg/day
- TD50 (rat, strain Wistar/FDRL, both sexes, in feed, site: liver, lesion: hepatocellular carcinoma, dosed 104 weeks, study length 104 weeks): 1000 mg/kg/day
- TD50 (rat, strain Wistar/FDRL, both sexes, in feed, site: liver, lesion: hyperplastic nodule, dosed 104 weeks, study length 104 weeks): 79.9 mg/kg/day
